Structures are written as SMILES.

We go through one molecule from publication PMC10730845, “Endoxifen downregulates AKT phosphorylation through protein kinase C beta 1 inhibition in ERα+ breast cancer” (NPJ Breast Cancer, 2023).

Assay type in all cases: cell-based, human
In assay [1] the test system is MCF7AC1 cells. In words: Crystal violet cell viability / proliferation assay, MCF7AC1. The following applies: CSS medium, 48 h, 0 to 10 µM tested. How it is done: Fig. 1 Z-endoxifen (ENDX) effects on cell viability and apoptosis in estrogen deprived ERα+ /HER2- MCF7AC1 cells. a Cells grown in CSS medium were treated with vehicle control or the indicated ENDX concentrations for […]. Cell viability was assessed by the crystal violet assay. b Cells were co-treated with vehicle control or the indicated ENDX concentrations, IncuCyte Annexin V green and NucLight red reagents in CSS medium for 48 h. […] Data represents the mean of six wells per treatment performed as biological duplicates ± s.d. **p ≤ 0.01; ***p ≤ 0.001; ****p ≤ 0.0001 by one-way ANOVA.
Cells were plated at a density of 2000 cells per well. Cell viability of (i) vehicle or drug treated MCF7AC1 and T47D-LTED cells in CSS medium, (ii) siNT or siPKCβ-transfected MCF7AC1 cells in CSS medium and (iii) T47D cells in FBS versus CSS medium were analyzed by crystal violet staining assay after 6 days of treatment or siRNA transfection as previously described. Cell viability was calculated as the average absorbance of the drug treated cells divided by the average absorbance of the vehicle treated cells × 100.

The test system of assay [2] is PKCβ1 in MCF7AC1 cells. In words: Immunoblot of PKCβ1 and pPKCβ1^Ser661, MCF7AC1. The conditions noted are these: serum starved; for Effect on PMA-stimulated PKCβ1^Ser661 phosphorylation: 2 h pretreatment, 200 nM PMA 20 min. On the procedure: The ENDX hydrochloride utilized in this study was synthesized in collaboration between Mayo Clinic and National Institute of Health (NIH). Estrogen deprived MCF7AC1 were treated with vehicle control or ENDX (National Cancer Institute) for 24 h. For the phorbol 12-myristate 13-acetate (PMA) (LC Laboratories, #P-1680) experiments, MCF7AC1 cells were maintained in serum-free medium for 24 h prior to pretreatment with vehicle or ENDX for 2 h followed by treatment with 20 or 200 nM PMA for 20 min. For the insulin (Sigma-Aldrich, #I0516) experiments, MCF7AC1 and T47D cells were maintained in serum-free medium for 24 h prior to pretreatment with vehicle control or drugs for 2 h followed by treatment with 100 nM insulin for 1 h.
(§1) Protein lysates were prepared using the RIPA lysis buffer system (ChemCruz #sc-24948) and quantified using the DC^TM Protein Assay reagents (Bio-Rad #5000112). Equal amounts of protein lysates were separated on 10% Criterion gels (Bio-Rad #3450112), transferred to PVDF membranes (Bio-Rad #1620177), blocked in TBST-5% milk and probed with primary antibodies listed in Supplementary Table 5, at the indicated dilutions. Membranes were incubated with HRP-conjugated anti-rabbit (CST #7074) or anti-mouse (CST #7076) secondary antibodies and visualized using chemiluminescent West Pico (Thermo Scientific #34580) or West Femto (Thermo Scientific #34096) reagents and a Li-Cor Odyssey® XF imager. Protein lysates from the MCF7AC1 xenograft model were obtained from a previous study. Quantitation of the protein bands signal intensity was performed using the NIH ImageJ image analysis software (https://imagej.nih.gov/ij///index.html). For the quantitation of the phospho protein levels, we first normalized total protein levels to β-actin loading control and used these values to normalize the phospho protein levels and compared change in protein expression levels relative to vehicle control normalized to 1.0. For the quantitation of total protein levels, we normalized the total protein levels to β-actin and compared change in expression levels relative to vehicle control normalized to 1.0. All blots were processed in parallel and derived from the same experiments. Unprocessed immunoblot images are provided in Supplementary Figs. 9–13.
On the technique in general: Immunoblotting shows a protein as a band on a membrane.

Assay [3] relates to AKT phosphorylation (pAKT^Ser473, pAKT^Thr308, p-AKT substrates) in MCF7AC1 cells. Nature of the assay: Immunoblot of AKT signaling and PARP cleavage, MCF7AC1. On the procedure: The ENDX hydrochloride utilized in this study was synthesized in collaboration between Mayo Clinic and National Institute of Health (NIH). Estrogen deprived MCF7AC1 were treated with vehicle control or ENDX (National Cancer Institute) for 24 h. […] For the insulin (Sigma-Aldrich, #I0516) experiments, MCF7AC1 and T47D cells were maintained in serum-free medium for 24 h prior to pretreatment with vehicle control or drugs for 2 h followed by treatment with 100 nM insulin for 1 h.
as §1

The test system of assay [4] is MDAMB231 cells. In words: Crystal violet growth assay, MDAMB231. The conditions noted are these: 0–10 µM tested, day seven. The text has this:
Supplementary Figure 8. […]
ANOVA. b, Effects of ENDX on cell proliferation at the indicated concentrations on day seven of
treatment. […]

Assay [5] deals with MCF7AC1^caAKT cells. In words: IncuCyte Annexin V apoptosis assay, MCF7AC1^caAKT. The following applies: CSS medium, 5 µM, 48 h. How it is done: MCF7AC1 and T47D-LTED cells were plated at a density of 2000 cells per well in CSS medium for 24 h. Cells were then co-treated for 48 h with vehicle or drug, IncuCyte Annexin V green reagent (#4642, 1:300), an early-stage apoptosis marker, and IncuCyte NucLight rapid red reagent (#4717, 1:500), a dye that stains all cell nuclei red, in CSS medium. MCF7AC1^caAKT cells were plated at a cell density of 2000 cells per well in CSS medium in the absence or presence of cumate for 48 h and then co-treated with vehicle or drug, Annexin V green and NucLight rapid red reagents in the absence or presence of cumate for an additional 48 h in CSS medium.
Molecular cloning was performed for the generation of catalytically active AKT-expressing MCF7AC1 cells. For this purpose, vector pCDNA3.1+ containing an N-terminal SRCMyr signal AKT ORF and C-terminal hemagglutinin (HA)-tag was provided as a kind gift from Dr. Haojie Huang, Ph.D, Mayo Clinic, Rochester, MN. The constitutively active AKT (caAKT)-HA insert was excised using NheI/EcoRV restriction digest, gel purified and cloned into the NheI//PmeI site of an SBI (System biosciences, Palo Alto, CA) vector with modified restriction sites. Sanger sequencing was performed by Azenta/Genewiz, (South Plainfield, NJ) to confirm in frame sequence. […]

The mark [6] stands for this setting: CSS medium, 24 h, not at 0.01 and 0.1 μM.

`CC/C(=C(\c1ccc(O)cc1)c1ccc(OCCNC)cc1)c1ccccc1` [ENDX, Z-endoxifen]: the “Concentrations that significantly reduced cell viability” value in assay [1] was no less than 2.5 µM. For the same molecule, the “Effect on PKCβ1^Ser661 phosphorylation in insulin treated cells” value in assay [2] (100 nM insulin 1 h) is listed as “no effects on PKCβ1^Ser661 phosphorylation”. In assay [2] (100 nM insulin 1 h, ENDX 0.01, 0.1, 5 µM, TAM 0.1 µM, ICI 0.1 µM), the “Effect on PKCβ1 total protein in insulin treated cells” value is given as “reduced PKCβ1 total protein levels”. For the same molecule, the “Effect on PMA-stimulated PKCβ1^Ser661 phosphorylation” value in assay [2] (5 μM) is listed as “minimal”; in assay [2] (0.01, 0.1 μM), “no”. The “Concentration robustly reducing PKCβ1 total protein levels” value in assay [2] (PMA-stimulated, 0.01, 0.1 and 5 μM tested) is 5 µM. Also, the “Effect on AKT^Thr308 phosphorylation” value in assay [3] (CSS medium, 24 h, 5 µM) is recorded as “did not alter AKT^Thr308 phosphorylation”; in assay [3] (CSS medium, 24 h, 0.01 and 0.1 µM), “stimulated AKT^Thr308 phosphorylation”. For the same molecule, the “Concentration increasing PARP cleavage” value in assay [3] (CSS medium, 24 h, 0.01, 0.1 and 5 µM tested) was determined as 5 µM. Further, the “Concentration attenuating AKT^Ser473 phosphorylation” value in assay [3] (setting [6]) is on record as 5 µM. In assay [3] (setting [6]), the “Concentration reducing phosphorylation of AKT substrates” value amounted to 5 µM. Besides, in assay [3] (serum starved, 100 nM insulin 1 h, 5 μM), the “Effect on insulin-stimulated AKT^Thr308 phosphorylation” value is “able to block AKT^Thr308 phosphorylation”. Moreover, the “Effect on insulin-stimulated phosphorylation of AKT substrates” value in assay [3] (serum starved, 2 h pretreatment, 100 nM insulin 1 h, 5 µM) was “diminished insulin-stimulated phosphorylation of AKT substrates”. For the same molecule, the “Concentration blocking insulin-stimulated AKT^Ser473 phosphorylation” value in assay [3] (serum starved, 2 h pretreatment, 100 nM insulin 1 h, not at 0.01 and 0.1 μM) is 5 µM. In addition, the “Effect on PMA-stimulated AKT^Ser473 phosphorylation” value in assay [3] (serum starved, 2 h pretreatment, 200 nM PMA 20 min, 5 μM) is on record as “reduced AKT^Ser473 phosphorylation”. Moreover, the “Concentrations at which growth was inhibited” value in assay [4] is no less than 7.5 µM. For the same molecule, the Effect on apoptosis entry in assay [5] (absence of cumate) is “induced apoptosis”. In addition, the “Effect of caAKT expression on ENDX-induced apoptosis” value in assay [5] (presence of cumate) is reported as “significantly diminished the ability of ENDX to induce apoptosis”.
